Assay results: patent publication US20220213055A1, “SUBSTITUTED (PIPERIDIN-1-YL)ARYL ANALOGUES FOR MODULATING AVIL ACTIVITY” (University of Virginia Patent Foundation, priority 2019, published 2022)
pIC50: −log10 of the molar value. Read-outs that look alike come from different tables or passages of the source.

Assays:
[1] = test system: Immortalized human astrocytes; experiment: MTT cell viability assay, astrocytes (non-cancer control); format: cell-based; details: immortalized human astrocytes, MTT after three days
Experimental: (§1) Different concentration of compounds were added to the cells. Three days later, a MTT assay (Sigma) was performed to monitor cell viability.
(§2) In this example, samples of glioblastoma cells (U87) and astrocyte cells (non-cancer control) were exposed various disclosed compounds to determine the effectiveness of the compounds for inhibiting cell growth.

[2] = test system: Glioblastoma cell line U87 cells; experiment: MTT cell viability assay, glioblastoma cells; format: cell-based; details: U87 glioblastoma cells, MTT after three days
Experimental: as §1, §2

pIC50 ([2]; Homo sapiens, U-87 MG, 72 h) | pIC50 [2] | SMILES | pIC50 ([1]; Homo sapiens, Astrocyte, 72 h) | pIC50 ([1]; read-out: IC50 (astrocyte))
4.85 |  | OCC1(CCCc2ccccc2)CCCN(c2ccccn2)C1 (centres unmarked) [PLH1291, (3-(3-Phenylpropyl)-1-(pyridin-2-VI)piperidin-3-VI)methanol] | < 4.10 | 
< 4.10 |  | Nc1nccc(N2CCCC(C(=O)NCc3ccccc3)C2)n1 (centres unmarked) [PLH1290, 1-(2-Aminopyrimidin-4-yl)-N-benzylpiperidine-3-carboxamide] | < 4.10 | 
5.52 |  | Nc1nccc(N2CCC(CO)(CCCc3ccccc3)CC2)n1 [JDDUVA49, (1-(2-Aminopyrimidin-4-yl)-4-(3-phenylpropyl)piperidin-4-yl)methanol] | < 4.10 | 
4.39 |  | COc1nc(OC)nc(N2CCC(CO)(CCCc3ccccc3)CC2)n1 [JDDUVA52, (1-(4,6-Dimethoxy-1,3,5-triazin-2-yl)-4-(3-phenylpropyl)piperidin-4-yl)methanol] | < 4.10 | 
4.72 |  | Cc1nc(N(C)C)nc(N2CCCC(CO)(CCCc3ccccc3)C2)c1C (centres unmarked) [PLH1276, (1-(2-(Dimethylamino)-5,6-dimethylpyrimidin-4-yl)-3-(3-phenylpropyl)piperidin-3-yl)methanol] | < 4.10 | 
< 4.10 |  | COC(=O)C1CCCN(C(=O)OC(C)(C)C)C1 (centres unmarked) [PLH1190] | < 4.10 | 
~4.30 |  | Nc1nccc(N2CCCC(COCc3ccccc3)C2)n1 (centres unmarked) [PLH2027, 4-(3-((Benzyloxy)methyl)piperidin-1-yl)pyrimidin-2-amine] | ~4.10 | 
< 4.10 |  | Nc1nccc(N2CCCCC2CO)n1 (centres unmarked) [JDDUVA61, (1-(2-Aminopyrimidin-4-yl)piperidin-2-yl)methanol] | < 4.10 | 
< 4.10 |  | Nc1nccc(N2CCCC(CO)C2)n1 (centres unmarked) [JDDUVA18, (1-(2-Aminopyrimidin-4-yl)piperidin-3-yl)methanol] |  | 
~4.65 |  | COC(=O)C1(CCCc2ccccc2)CCCN(C(=O)OC(C)(C)C)C1 (centres unmarked) [PLH1195] | 4.19 | 
4.14 |  | CC1CCN(c2ccnc(N)n2)CC1 [JDDUVA59, 4-(4-Methylpiperidin-1-yl)pyrimidin-2-amine] | < 4.10 | 
5.55 |  | Nc1nccc(N2CCC[C@@H](COCc3ccccc3)C2)n1 [PLH2040, (R)-4-(3-((Benzyloxy)methyl)piperidin-1-yl)pyrimidin-2-amine] | < 4.10 | 
~5.77 | ~5.47 | Nc1nccc(N2CCCC(CCCc3ccccc3)(COCc3ccccc3)C2)n1 (centres unmarked) [PLH1253, 4-(3-((Benzyloxy)methyl)-3-(3-phenylpropyl)piperidin-1-yl)pyrimidin-2-amine] |  | 
4.70 |  | Cc1nccnc1N1CCCC(CO)(CCCc2ccccc2)C1 (centres unmarked) [PLH1234, (1-(3-Methylpyrazin-2-yl)-3-(3-phenylpropyl)piperidin-3-yl)methanol] | 4.29 | 
~4.82 |  | CCOC(=O)C1(CCCc2ccccc2)CCCN(C(=O)OC(C)(C)C)C1 (centres unmarked) [PLH1225] | < 4.10 | 
4.80 |  | O=C(c1sc2cc(F)ccc2c1Cl)N1CCCC(CO)(CCCc2ccccc2)C1 (centres unmarked) [PLH1254] | 4.31 | 
< 4.10 |  | CC(C)(C)OC(=O)N1CCCC(C(=O)NCc2ccccc2)C1 (centres unmarked) [PLH1273] | < 4.10 | 
~4.52 |  | CCOC(=O)C1(CCCc2ccccc2)CCN(C(=O)OC(C)(C)C)CC1 [JDDUVA76] | ~4.22 | 
4.85 |  | Cc1c(O)ncnc1N1CCC(CO)(CCCc2ccccc2)CC1 [JDDUVA48, 6-(4-(Hydroxymethyl)-4-(3-phenylpropyl)piperidin-1-yl)-5-methylpyrimidin-4-ol] | 5.14 | 
5.37 |  | Nc1nccc(N2CCC[C@H](COCc3ccccc3)C2)n1 [PLH2032, (S)-4-(3-((Benzyloxy)methyl)piperidin-1-yl)pyrimidin-2-amine] | ~4.40 | 
4.87 |  | Nc1ccnc(N2CCC(CO)(CCCc3ccccc3)CC2)n1 [JDDUVA69, (1-(4-Aminopyrimidin-2-yl)-4-(3-phenylpropyl)piperidin-4-yl)methanol] | < 4.10 | 
< 4.10 |  | COC(=O)C1CCCNC1 (centres unmarked) [PLH1155] | < 4.10 | 
 |  | OCC1(CCCc2ccccc2)CCN(c2cc(Cl)ncn2)CC1 [JDDUVA60, (1-(6-Chloropyrimidin-4-yl)-4-(3-phenylpropyl)piperidin-4-yl)methanol] | < 4.10 | 
 | ~4.91 | Nc1nccc(N2CCCC(CO)(CCCc3ccccc3)C2)n1 (centres unmarked) [JDDUVA28] |  | < 4.10
~4.93 |  | Nc1nccc(N2CCCC(CO)(CCCc3ccccc3)C2)n1 (centres unmarked) [PLH1215, (1-(2-Aminopyrimidin-4-yl)-3-(3-phenylpropyl)piperidin-3-yl)methanol] | < 4.10 | 

pIC50 ([2]; Homo sapiens, U-87 MG, 72 h) | pIC50 [2] | SMILES | pIC50 ([1]; Homo sapiens, Astrocyte, 72 h) | pIC50 ([1]; read-out: IC50 (astrocyte))
4.68 |  | Cc1c(Cl)ncnc1N1CCC(CO)(CCCc2ccccc2)CC1 [JDDUVA50, (1-(6-Chloro-5-methylpyrimidin-4-yl)-4-(3-phenylpropyl)piperidin-4-yl)methanol] | < 4.10 | 
 | ~4.96 | Nc1nccc(N2CCCC(CO)(CCCc3ccccc3)C2)n1 (centres unmarked) [JDDUVA38] |  | 4.25
 | 5.22 | COC(=O)C1(CCCc2ccccc2)CCCN(c2ccnc(N)n2)C1 (centres unmarked) [PLH1209, Methyl 1-(2-aminopyrimidin-4-yl)-3-(3-phenylpropyl)piperidine-3-carboxylate] |  | 4.12
4.80 |  | Nc1nccc(N2CCC(c3ccccc3)CC2)n1 [JDDUVA63, 4-(4-Phenylpiperidin-1-yl)pyrimidin-2-amine] | < 4.10 | 
5.82 |  | CCc1ncnc(N2CCCC(CO)(CCCc3ccccc3)C2)c1F (centres unmarked) [PLH2002, (1-(6-Ethyl-5-fluoropyrimidin-4-yl)-3-(3-phenylpropyl)piperidin-3-yl)methanol] | 5.96 | 
5.10 |  | O=Cc1c(Cl)ncnc1N1CCCC(CO)(CCCc2ccccc2)C1 (centres unmarked) [PLH1293] | 4.74 | 
< 4.10 |  | Nc1nccc(N2CCc3ccccc3C2)n1 [JDDUVA71, 4-(3,4-Dihydroisoquinolin-2(1H)-yl)pyrimidin-2-amine] | < 4.10 | 
~4.10 |  | O=C(O)C1(CCCc2ccccc2)CCCNC1 (centres unmarked) [PLH1197] | < 4.10 | 
4.20 |  | COc1nc(OC)nc(N2CCCC(CO)(CCCc3ccccc3)C2)n1 (centres unmarked) [PLH1230, (1-(4,6-Dimethoxy-1,3,5-triazin-2-yl)-3-(3-phenylpropyl)piperidin-3-yl)methanol] | < 4.10 | 
~5.60 |  | COc1c(Cl)ncnc1N1CCC(CO)(CCCc2ccccc2)CC1 [JDDUVA67, (1-(6-Chloro-5-methoxypyrimidin-4-yl)-4-(3-phenylpropyl)piperidin-4-yl)methanol] | ~5.22 | 
5.10 |  | Cc1c(Cl)ncnc1N1CCCC(CO)(CCCc2ccccc2)C1 (centres unmarked) [PLH1279, (1-(6-Chloro-5-methylpyrimidin-4-yl)-3-(3-phenylpropyl)piperidin-3-yl)methanol] | < 4.10 | 
< 4.10 |  | Nc1ccnc(N2CCCC(CO)(CCCc3ccccc3)C2)n1 (centres unmarked) [PLH2006, (1-(4-Aminopyrimidin-2-yl)-3-(3-phenylpropyl)piperidin-3-yl)methanol] | < 4.10 | 
~4.30 |  | CS(=O)(=O)OCC1(CCCc2ccccc2)CCCN(c2ccnc(N)n2)C1 (centres unmarked) [PLH1224] | < 4.10 | 
< 4.10 |  | COC(=O)C1CCCN(c2ccnc(N)n2)C1 (centres unmarked) [JDDUVA16] |  | 
4.89 |  | OCC1(CCCc2ccccc2)CCN(c2cc(C(F)(F)F)ncn2)CC1 [JDDUVA47, (4-(3-Phenylpropyl)-1-(6-(trifluoromethyl)pyrimidin-4-yl)piperidin-4-yl)methanol] | < 4.10 | 
5.44 |  | Nc1nc(N)nc(N2CCCC(CO)(CCCc3ccccc3)C2)n1 (centres unmarked) [PLH1258, (1-(4,6-Diamino-1,3,5-triazin-2-yl)-3-(3-phenylpropyl)piperidin-3-yl)methanol] | < 4.10 | 
4.92 |  | Nc1nc(N)nc(N2CCC(CO)(CCCc3ccccc3)CC2)n1 [JDDUVA78, (1-(4,6-Diamino-1,3,5-triazin-2-yl)-4-(3-phenylpropyl)piperidin-4-yl)methanol] | ~4.40 | 
< 4.10 |  | Nc1ncnc(N2CCCC(CO)(CCCc3ccccc3)C2)n1 (centres unmarked) [PLH1239, (1-(4-Amino-1,3,5-triazin-2-yl)-3-(3-phenylpropyl)piperidin-3-yl)methanol] |  | 
~4.52 |  | OCC1(CCCc2ccccc2)CCCN(c2ccncn2)C1 (centres unmarked) [PLH2062, (3-(3-Phenylpropyl)-1-(pyrimidin-4-VI)piperidin-3-yl)methanol] | < 4.10 | 
~5.70 |  | OCC1(CCCc2ccccc2)CCCN(c2ncnc3cc(Cl)ccc23)C1 (centres unmarked) [PLH2074, (1-(7-Chloroquinazolin-4-yl)-3-(3-phenylpropyl)piperidin-3-yl)methanol] | ~4.82 | 
4.52 |  | Cc1nccnc1N1CCC(CO)(CCCc2ccccc2)CC1 [JDDUVA53, (1-(3-Methylpyrazin-2-yl)-4-(3-phenylpropyl)piperidin-4-yl)methanol] | < 4.10 | 
4.77 |  | Nc1nccc(N2CCCC(C(=O)NCCc3ccccc3)C2)n1 (centres unmarked) [PLH1285, 1-(2-Aminopyrimidin-4-yl)-N-phenethylpiperidine-3-carboxamide] | < 4.10 | 
~5.60 | 5.64 | COc1c(Cl)ncnc1N1CCCC(CO)(CCCc2ccccc2)C1 (centres unmarked) [PLH1302, (1-(6-Chloro-5-methoxypyrimidin-4-yl)-3-(3-phenylpropyl)piperidin-3-yl)methanol] | ~4.70 | 5.00
5.44 |  | CCc1ncnc(N2CCC(CO)(CCCc3ccccc3)CC2)c1F [JDDUVA68, (1-(6-Ethyl-5-fluoropyrimidin-4-yl)-4-(3-phenylpropyl)piperidin-4-yl)methanol] | 4.90 | 
 |  | Cc1nc(N)nc(N2CCC(CO)(CCCc3ccccc3)CC2)c1C [JDDUVA43, (1-(2-Amino-5,6-dimethylpyrimidin-4-yl)-4-(3-phenylpropyl)piperidin-4-yl)methanol] | 4.33 | 4.22
